The source of these data is ChEMBL document CHEMBL1201862, “PubChem BioAssay data set” (2004).

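Five concentrations, 48 hours, 96-well plates. GI50 is the concentration that inhibits growth by half.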 Active and inactive are the calls of the source. No stated cut-off is given here; in the data, active = GI50 up to about 1.1 µM and inactive = higher.

Common to all, as to assay: NCI tumour cell line growth inhibition, 48 h
Test [1] concerns RXF 393.
For test [2], the system named is SF-295.
The test system of test [3] is HCT-15.
The test system of test [4] is CCRF-CEM.
In test [5] the test system is OVCAR-5.
The test system of test [6] is Malme-3M.
In test [7] the test system is NCI-H460.
Test [8] relates to K562.
The subject of test [9] is ACHN.
The subject of test [10] is SNB-19.
Test [11] relates to A549.
In test [12] the test system is OVCAR-3.
Test [13] deals with HOP-62.
For test [14], the system named is HL-60.
In test [15] the test system is SR.
Test [16] has as its system SN12C.
In test [17] the test system is UACC-62.
The subject of test [18] is UACC-257.
For test [19], the system named is MDA-MB-231.

Regarding `[O-][S+]1C(=c2ccc(=C3Sc4ccccc4S3)cc2)Sc2ccccc21` (stereo unspecified), the GI50 was 24.2 µM (inactive) in test [1]; 17.1 µM (inactive) in test [2]; 15.3 µM in test [3]; > 94.4 µM (inactive) in test [4]; 18.3 µM (inactive) in test [5]; > 100 µM (inactive) in test [6]. Also, the GI50 was 18.2 µM (inactive) in test [7]; > 66.7 µM (inactive) in [8]; 19.5 µM (inactive) in test [9]; 17 µM (inactive) in [10]; 17.6 µM (inactive) in test [11]; > 100 µM (inactive) in test [12]. For the same compound, the GI50 is 17.7 µM (inactive) in test [13]; > 100 µM (inactive) in test [14]; 89.5 µM (inactive) in test [15]; 15.6 µM (inactive) in test [16]; 18.1 µM (inactive) in test [17]; > 92.5 µM (inactive) in test [18].

For the compound `CC1(C)OCC2OC3([C@H]4OC(C)(C)O[C@@H]4CO)OC(C)(C)OC3C2O1` (stereo partly specified), the GI50 in test [1] is > 100 µM (inactive); in test [2], > 100 µM (inactive); in test [3], > 100 µM; in test [4], > 100 µM (inactive); in [5], > 100 µM (inactive); in test [19] it was > 100 µM (inactive). The GI50 in [7], in [8], in test [9], in [10], in [11] and in [12] was > 100 µM (inactive) each time. For the same compound, the GI50 in [13], in test [15], in test [16], in test [17] and in test [18] was > 100 µM (inactive) in each case.

For `O=C1OCc2nc3c(c(-c4ccccc4C(F)(F)F)c21)C(=O)OC3`, the GI50 was > 100 µM (inactive) in [1]; > 100 µM (inactive) in test [2]; > 100 µM in test [3]; > 100 µM (inactive) in test [4]; > 100 µM (inactive) in test [5]; > 100 µM (inactive) in [6]. Moreover, the GI50 in [7], in test [8], in test [9], in [10], in test [11] and in [12] was > 100 µM (inactive) each time. For the same compound, the GI50 in test [13], in [14], in test [15], in test [16], in test [17] and in test [18] was > 100 µM (inactive) throughout.

For `C[C@@H]1CC[C@@H]2[C@@H](C1)O[C@@H]([C@@H](C)OCc1ccccc1)SC2(C)C`, the GI50 was 15.4 µM (inactive) in test [1]; 16.6 µM (inactive) in test [2]; 19.5 µM in [3]; 16.6 µM (inactive) in test [4]; 18.3 µM (inactive) in test [5]; 21.5 µM (inactive) in test [19]. Moreover, the GI50 in test [6] is 17.2 µM (inactive); in test [7], 20.9 µM (inactive); in [8] it was 18.1 µM (inactive); in test [9], 17.3 µM (inactive); in [10], 19 µM (inactive); in test [11], 29.9 µM (inactive). Also, the GI50 in test [13] is 16.4 µM (inactive); in [15], 17.5 µM (inactive); in test [16] it was 17.2 µM (inactive); in test [17] it was 19.3 µM (inactive); in [18], 19.4 µM (inactive).

For `O=[N+]([O-])c1ccc(C2N3CCCCC3[C@H]3CCCCN23)cc1` (stereo partly specified), the GI50 in [1] is > 100 µM (inactive); in [2], > 100 µM (inactive); in [3] it was > 100 µM; in [4], > 100 µM (inactive); in test [5], > 100 µM (inactive); in test [6] it was > 100 µM (inactive). Moreover, the GI50 in test [7], in test [8], in [9], in test [10], in test [11] and in [12] was > 100 µM (inactive) each time. Also, the GI50 in [13], in [14], in [15], in test [16], in test [17] and in test [18] was > 100 µM (inactive) each time.

On to `NNC(=O)CNC(=O)CSc1nnc(COc2ccc(Cl)cc2)n1-c1ccccc1`, for which the GI50 in test [1] was > 100 µM (inactive); in [2], > 100 µM (inactive); in test [3], > 100 µM; in test [4] it was 60.5 µM (inactive); in test [5], > 100 µM (inactive); in test [19], > 100 µM (inactive). The GI50 in [6], in test [7], in test [8], in test [9], in test [10] and in test [11] was > 100 µM (inactive) each time. Further, the GI50 in test [12], in test [13], in test [14], in test [16], in test [17] and in test [18] was > 100 µM (inactive) throughout.

Turning to `O=C1CCCC1CC(CN1CCOCC1)Sc1nnnn1-c1ccccc1` (stereo unspecified), the GI50 was 34.6 µM (inactive) in test [1]; > 100 µM (inactive) in [2]; > 100 µM (inactive) in [4]; 72.6 µM (inactive) in test [5]; 72.3 µM (inactive) in test [19]; > 100 µM (inactive) in [6]. Besides, the GI50 in test [8] was > 100 µM (inactive); in test [9], 31 µM (inactive); in [10], > 100 µM (inactive); in test [11] it was > 100 µM (inactive); in test [12] it was > 100 µM (inactive); in test [13] it was > 100 µM (inactive). Further, the GI50 in [14] was 16.7 µM (inactive); in [15] it was > 100 µM (inactive); in [16] it was > 100 µM (inactive); in [17], > 100 µM (inactive); in test [18], > 100 µM (inactive).

`COc1ccc(-c2c(C(C)=O)c(-c3ccccc3)n(C3OC(COC(C)=O)C(OC(C)=O)C(OC(C)=O)C3OC(C)=O)c(=S)c2C#N)cc1` (stereo unspecified): the GI50 in test [1] is > 100 µM (inactive); in [2], > 100 µM (inactive); in [3], > 100 µM; in test [4], > 100 µM (inactive); in test [5] it was > 100 µM (inactive); in test [19] it was > 100 µM (inactive). Further, the GI50 in [6], in test [7], in [8], in test [9], in test [10] and in test [11] was > 100 µM (inactive) throughout. The GI50 in test [12], in [13], in [14], in test [15], in test [16] and in test [17] was > 100 µM (inactive) throughout. Further, the GI50 in [18] was > 100 µM (inactive).

`O=C(NCc1ccccc1)C1C(=O)C(=O)N(Cc2ccccc2)C1=O` (stereo unspecified): the GI50 in test [1] was > 100 µM (inactive); in test [2] it was > 100 µM (inactive); in test [3] it was > 100 µM; in [4] it was > 100 µM (inactive); in test [5], > 100 µM (inactive); in [6], > 100 µM (inactive). Besides, the GI50 in test [7], in [8], in test [9], in test [10], in [11] and in [12] was > 100 µM (inactive) each time. Moreover, the GI50 in test [13], in [14], in test [15], in [16], in test [17] and in test [18] was > 100 µM (inactive) in each case.

Regarding `COc1cc(C2c3cc4c(cc3[C@H](NC(=O)c3cccs3)C3COC(=O)[C@H]23)OCO4)cc(OC)c1OC` (stereo partly specified), the GI50 was 0.0133 µM (active) in test [1]; < 0.01 µM (active) in test [2]; < 0.0214 µM in [3]; < 0.0179 µM (active) in test [4]; > 46.9 µM (inactive) in test [5]; < 0.01 µM (active) in test [19]. For the same compound, the GI50 was 92.3 µM (inactive) in [6]; 0.0172 µM (active) in test [7]; < 0.0156 µM (active) in test [8]; < 0.0174 µM (active) in test [9]; < 0.018 µM (active) in test [10]; < 0.019 µM (active) in test [11]. Besides, the GI50 in [12] was 0.0361 µM (active); in test [13], < 0.0144 µM (active); in test [14] it was < 0.01 µM (active); in test [15], 0.0122 µM (active); in test [16], < 0.0187 µM (active); in [17], < 0.0128 µM (active).

Turning to `CCC1C(=O)OCc2c1cc1n(c2=O)Cc2ccccc2-1` (stereo unspecified), the GI50 in [1] was > 100 µM (inactive); in test [2], > 100 µM (inactive); in [3], > 100 µM; in test [4] it was > 100 µM (inactive); in test [5] it was > 100 µM (inactive); in test [6] it was > 100 µM (inactive). Moreover, the GI50 in [7], in test [8], in test [9], in test [10], in [11] and in test [12] was > 100 µM (inactive) each time. The GI50 in [13], in [14], in test [15], in [16], in test [17] and in test [18] was > 100 µM (inactive) each time.
